Measurements: article PMC10053440, “Semi-Synthesis and Biological Evaluation of 25(R)-26-Acetoxy-3β,5α-Dihydroxycholest-6-One” (Marine Drugs, 2023)
Values after ≈ are worked out from the molar mass of the structure shown.

Tests used:
[1] = system: 293T (human embryonic kidney cell); test: CCK-8 anti-proliferation assay, 293T; type: cell-based; settings: HEK-293T, at 20 µM, 48 h, mean ± SEM, read-out: Inhibition Rate (%)
Description: (§1) One concentration was set for each sample during preliminary screening and three multiple holes were set for each concentration. Eight concentration gradients were set for each sample for IC50 determination and three multiple holes were set for each concentration. […] The absorbance was measured at 450 nm with an enzyme labeling instrument and the original data and results were recorded. […] Doxorubicin was used as a positive control. All the cancer cell lines were obtained from Qingdao AC biotechnology Co., LTD, Qingdao, China.

A-673 (Ewing sarcoma) = test: CCK-8 anti-proliferation assay, A-673; type: cell-based; settings: Homo sapiens, A673, at 20 µM, 48 h, mean ± SEM, read-out: Inhibition Rate (%)
Description: as §1

[2] = system: A-375 (human melanoma cell); test: CCK-8 anti-proliferation assay, A-375; type: cell-based; settings: at 20 µM, 48 h, mean ± SEM, read-out: Inhibition Rate (%)
Description: as §1

[3] = system: PATU8988T (human pancreatic cancer cell); test: CCK-8 anti-proliferation assay, PATU8988T; type: cell-based; settings: PaTu 8988t, at 20 µM, 48 h, mean ± SEM, read-out: Inhibition Rate (%)
Description: as §1

[4] = system: HOS (human osteosarcoma cell); test: CCK-8 anti-proliferation assay, HOS; type: cell-based; settings: at 20 µM, 48 h, mean ± SEM, read-out: Inhibition Rate (%)
Description: as §1

[5] = system: HepG2 (human liver carcinoma cell); test: CCK-8 anti-proliferation assay, HepG2; type: cell-based; settings: for inhibition at 20 µM: 48 h, mean ± SEM, read-out: Inhibition Rate (%)
Description: as §1

[6] = system: K-562 (human myeloid leukemia cell); test: CCK-8 anti-proliferation assay, K-562; type: cell-based; settings: 48 h, mean ± SEM; for inhibition at 20 µM: Homo sapiens, K562, at 20 µM, read-out: Inhibition Rate (%); for Inhibition Rate (%): at 20 µM
Description: as §1

[7] = system: SF126 (human glioblastoma cell); test: CCK-8 anti-proliferation assay, SF126; type: cell-based; settings: SF-126, at 20 µM, 48 h, mean ± SEM, read-out: Inhibition Rate (%)
Description: as §1

[8] = system: L-02 (human hepatocyte cell); test: CCK-8 anti-proliferation assay, L-02; type: cell-based; settings: L-02 normal liver cells, at 20 µM, 48 h, mean ± SEM, read-out: Inhibition Rate (%)
Description: as §1

[9] = system: CAL-62 (human thyroid anaplastic carcinoma cell); test: CCK-8 anti-proliferation assay, CAL-62; type: cell-based; settings: at 20 µM, 48 h, mean ± SEM, read-out: Inhibition Rate (%)
Description: as §1

[10] = system: MCF7 (human breast cancer cell); test: CCK-8 anti-proliferation assay, MCF7; type: cell-based; settings: at 20 µM, 48 h, mean ± SEM, read-out: Inhibition Rate (%)
Description: as §1

[11] = system: GBC-SD (human gallbladder carcinoma cell); test: CCK-8 anti-proliferation assay, GBC-SD; type: cell-based; settings: at 20 µM, 48 h, mean ± SEM, read-out: Inhibition Rate (%)
Description: as §1

[12] = system: 5637 (HTB-9) (human bladder cancer cell); test: CCK-8 anti-proliferation assay, 5637 (HTB-9); type: cell-based; settings: for inhibition at 20 µM: 5637 (HTB-9), 48 h, mean ± SEM, read-out: Inhibition Rate (%)
Description: as §1

[13] = system: 786-O (human renal cancer cell); test: CCK-8 anti-proliferation assay, 786-O; type: cell-based; settings: 786-0, at 20 µM, 48 h, mean ± SEM, read-out: Inhibition Rate (%)
Description: as §1

[14] = system: MKN-45 (human gastric cancer cell); test: CCK-8 anti-proliferation assay, MKN-45; type: cell-based; settings: at 20 µM, 48 h, mean ± SEM, read-out: Inhibition Rate (%)
Description: as §1

[15] = system: respiratory syncytial virus (RSV); test: Anti-RSV activity assay (RT-qPCR); type: cell-based; settings: human respiratory syncytial virus, HEp-2 cells, mean ± SEM, read-out: Inhibition rate (%) of RSV replication
From the text: Remdesivir was selected and evaluated as a positive control.

[16] = system: TE-1 (human esophageal cancer cell); test: CCK-8 anti-proliferation assay, TE-1; type: cell-based; settings: at 20 µM, 48 h, mean ± SEM, read-out: Inhibition Rate (%)
Description: as §1

[17] = system: HeLa (human cervical cancer cell); test: CCK-8 anti-proliferation assay, HeLa; type: cell-based; settings: at 20 µM, 48 h, mean ± SEM, read-out: Inhibition Rate (%)
Description: as §1

[18] = system: HCT 116 (human colorectal cancer cell); test: CCK-8 anti-proliferation assay, HCT 116; type: cell-based; settings: at 20 µM, 48 h, mean ± SEM, read-out: Inhibition Rate (%)
Description: as §1

[19] = system: DU145 (human prostate carcinoma cell); test: CCK-8 anti-proliferation assay, DU145; type: cell-based; settings: DU-145, at 20 µM, 48 h, mean ± SEM, read-out: Inhibition Rate (%)
Description: as §1

5637 (HTB-9) cells = test: Apoptosis assay, Annexin V-FITC/PI flow cytometry; type: cell-based, human; settings: 48 h
Description: Next, the apoptosis study of compound ([…])-5 was investigated against 5637 (HTB-9) cells based on a standard flow cytometry technique and assessed by Annexin V-FITC/PI staining. […] The percent of apoptosis in cells was assayed according to the instructions (Vazyme, A211). 5637 (HTB-9) cells were seeded in 6-well plates at 2 × 10^5 cells/well overnight and treated with compound ([…])-5 at various concentrations for 48 h. Trypsinization of the cells occurred without EDTA and they were collected in tubes and suspended in 100 μL ice-cold 1 × binding buffer after being washed twice with PBS. Cells were stained with PI and FITC Annexin V for 10 min at room temperature following the instructions of the Annexin V FITC/PI kit (Vazyme Biotech, Nanjing, China). Next, 200 μL ice-cold 1 × binding buffer was added. The result was measured by flow cytometry (MoFlo XDP, Beckman, Pasadena, CA, USA). For each condition, a minimum of 10,000 cells were analyzed. Triplicate experiments were performed independently.

[20] = system: A549 (human lung adenocarcinoma cell); test: CCK-8 anti-proliferation assay, A549; type: cell-based; settings: A549, 48 h, at 20 µM, mean ± SEM, read-out: Inhibition Rate (%)
Description: as §1

[21] = system: human leukemia cell line K-562; settings: cited from earlier work
[22] = system: respiratory syncytial virus (RSV); parameters: method as in PMID 24882250; settings: read-out: anti-RSV IC50; cited from earlier work

SMILES	inhibition at 20 µM [1] [%]	inhibition at 20 µM (A-673 (Ewing sarcoma)) [%]	inhibition at 20 µM [2] [%]	inhibition at 20 µM [3] [%]	inhibition at 20 µM [4] [%]	inhibition at 20 µM [5] [%]	inhibition at 20 µM [6] [%]	Inhibition Rate (%) [6]	inhibition at 20 µM [7] [%]	inhibition at 20 µM [8] [%]	inhibition at 20 µM [9] [%]	inhibition at 20 µM [10] [%]	inhibition at 20 µM [11] [%]	inhibition at 20 µM [12] [%]	inhibition at 20 µM [13] [%]	inhibition at 20 µM [14] [%]	inhibition at 10 µM [15] [%]	inhibition at 20 µM [16] [%]	inhibition at 20 µM [17] [%]	inhibition at 20 µM [18] [%]	other results
CC(=O)OC[C@H](C)CCC[C@@H](C)[C@H]1CC[C@H]2[C@@H]3C[C@@H](O)[C@@]4(O)C[C@@H](O)CC[C@]4(C)[C@H]3CC[C@]12C [compound 13, (2R,6R)-2-Methyl-6-((3S,5R,6R,8S,9S,10R,13R,14S,17R)-3,5,6-Trihydroxy-10,13-Dimethylhexadecahydro-1H-Cyclopenta[a]Phenanthren-17-yl) Heptyl Acetate]	37.3 ± 2.7	66.3 ± 3.2	54.8 ± 1.7	53.6 ± 1.7	52.6 ± 1.5	58 ± 1.2	7.8 ± 2.3	did not exhibit any anti-proliferative activities	4.7 ± 1.3	6.3 ± 3.2	7.5 ± 2.7	19 ± 1.1	6 ± 2.4	52.2 ± 4.5	20.5 ± 1.3	52.7 ± 2.4	13.6 ± 2.1	13.5 ± 2.6	-2.3 ± 1.7	19.3 ± 1.2	melting point: 201 to 202 °C; inhibition at 20 µM [19]: -0.4 ± 3.9%
CC(=O)OC[C@H](C)CCC[C@@H](C)[C@H]1CC[C@H]2[C@@H]3CC(=O)[C@@]4(O)C[C@@H](O)CC[C@]4(C)[C@H]3CC[C@]12C [compound (25R)-5, (2R,6R)-6-((3S,5R,8S,9S,10R,13R,14S,17R)-3,5-Dihydroxy-10,13-Dimethyl-6-Oxohexadecahydro-1H-Cyclopenta[a]Phenanthren-17-yl)-2-Methylheptyl Acetate]	26.2 ± 1.5	49.4 ± 1.4	76.3 ± 1.7	65.9 ± 4.2	22.2 ± 1.1	66.8 ± 2.1	17.1 ± 2.8	weak inhibition activity	28.1 ± 0.5	-4.9 ± 3.4	18.2 ± 1.9	19.3 ± 2.1	28.1 ± 1.5	64.7 ± 3.4	65.3 ± 0.5	61.1 ± 1.4	29.4 ± 7.1	29.5 ± 2.2	22.7 ± 1.2	59.3 ± 3.8	induction of apoptosis (early-stage Annexin V-FITC+/PI- and late-stage Annexin V-FITC+/PI+) (5637 (HTB-9) cells): induced apoptotic cell death in a dose-dependent manner; IC50 ([5]; CCK-8, 48 h, read-out: IC50 against HepG2 cells): 15.5 µM; inhibition at 20 µM [20]: ≤ 50%; IC50 ([12]; CCK-8, 48 h, read-out: IC50 against 5637 (HTB-9) cells): 4.8 µM; inhibition at 20 µM [19]: 12.2 ± 2%
CC(=O)OCC(C)CCC[C@@H](C)[C@H]1CC[C@H]2[C@@H]3CC(=O)[C@@]4(O)C[C@@H](O)CC[C@]4(C)[C@H]3CC[C@]12C (some centres unmarked) [compound 5]																	18.3 ± 3.8				LC50 [21]: 0.9 µg/mL (≈ 1.89 µM)
CC(=O)OC[C@H](C)[C@H](C)/C=C/[C@@H](C)[C@H]1CC[C@H]2[C@@H]3CC(=O)[C@@]4(O)C[C@@H](O)CC[C@]4(C)[C@H]3CC[C@]12C [compound 3]																					IC50 [22]: 0.19 µM
